Legend:
[1] = target: T1, BSA (Bos taurus, UniProt P02769); assay: UV-vis absorption spectra (Soret shift of complex); type: binding; conditions: PBS, 37 °C, 15 min; hemin in excess over BSA
T1 construct: gene ALB

[2] = target: T2, Cig1 (Cryptococcus neoformans, UniProt J9VUB8); conditions: PBS, 25 °C; hemin from DMSO stock
T2 construct: gene CNAG_01653
T2 sequence (J9VUB8 entry or part of it): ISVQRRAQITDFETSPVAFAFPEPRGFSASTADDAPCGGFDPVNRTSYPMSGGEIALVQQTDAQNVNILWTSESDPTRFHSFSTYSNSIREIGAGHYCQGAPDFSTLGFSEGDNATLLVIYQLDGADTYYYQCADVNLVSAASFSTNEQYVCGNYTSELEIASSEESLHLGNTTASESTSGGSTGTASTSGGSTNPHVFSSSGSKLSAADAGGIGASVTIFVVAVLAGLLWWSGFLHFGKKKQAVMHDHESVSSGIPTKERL

T1 sequence (P02769 25-607): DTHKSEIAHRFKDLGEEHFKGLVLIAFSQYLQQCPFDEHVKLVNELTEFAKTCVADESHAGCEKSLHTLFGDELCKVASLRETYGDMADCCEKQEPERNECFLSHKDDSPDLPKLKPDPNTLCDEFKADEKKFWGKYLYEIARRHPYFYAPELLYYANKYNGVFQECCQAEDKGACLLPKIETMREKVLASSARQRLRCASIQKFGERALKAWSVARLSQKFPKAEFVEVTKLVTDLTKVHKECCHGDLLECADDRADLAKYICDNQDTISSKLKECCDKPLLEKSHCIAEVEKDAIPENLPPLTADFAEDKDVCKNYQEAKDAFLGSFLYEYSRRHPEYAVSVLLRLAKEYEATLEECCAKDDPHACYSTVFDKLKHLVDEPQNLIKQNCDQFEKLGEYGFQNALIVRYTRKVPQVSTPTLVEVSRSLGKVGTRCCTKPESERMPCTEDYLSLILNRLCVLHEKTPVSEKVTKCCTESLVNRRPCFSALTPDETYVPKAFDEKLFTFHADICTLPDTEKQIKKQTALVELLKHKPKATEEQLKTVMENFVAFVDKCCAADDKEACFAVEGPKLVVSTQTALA

SMILES: C=CC1=C(C)C2=Cc3c(C=C)c(C)c4[n]3[Fe]([Cl])[n]3c(c(C)c(CCC(=O)O)c3=CC3=NC(=C4)C(C)=C3CCC(=O)O)=CC1=N2 [hemin]
- UV-vis absorption spectra (Soret shift of complex) [1]: Hemin@BSA exhibited a red shift in its absorption peak
- Kd [2]: 9.81×10^‒7 mol/l

Source: publication PMC12329525, “All-stage targeted therapy for invasive cryptococcosis through interaction between the secretory protein Cig1 and hemin” (Asian Journal of Pharmaceutical Sciences, 2025)
